{"source": "patent US11236102B2", "about": "“Oxabicycloheptane prodrugs” (Lixte Biotechnology, Inc., priority 2015, dated 2022)", "experiment": "in vivo", "design": "species or system SD rats", "procedure": "105 was dissolved in 4% NaHCO3 in saline for IV administration. The detailed procedure of dosing solution preparation was presented in Appendix I.\nThirteen (13) animals were placed on the study. The animals in IV arm were free access to food and water. One extra animal was used for blank liver and plasma generation (5 mL per animal). The resulting blank liver and plasma was then applied to the development of bioanalytical method and sample bioanalysis for the entire study.\nThe IV injection was conducted via foot dorsal vein. Animals were free access to food and water before dose.\nThe animal is restrained manually. Approximately 150 μL of blood/time point is collected into sodium heparin tube via cardiac puncture for terminal bleeding (anesthetized under carbon dioxide). Blood sample will be put on ice and centrifuged to obtain plasma sample (2000 g, 5 min under 4° C.) within 10 minutes.\nThe animal will be euthanized with carbon dioxide inhalation. Open abdominal cavity with scissor to expose internal organs. Hold the carcass in an upright position and allow the organs to fall forward. Cut the connective tissues and remove the organs. Then the organs are rinsed with cold saline, dried on filtrate paper, placed into a screw-top tube and weighed, snap frozen by placing into dry-ice immediately.\nPlasma and liver samples were stored at approximately −80° C. until analysis. The backup samples will be discarded after three weeks after in-life completion unless requested. The unused dosing solutions will be discarded within three weeks after completion of the study\nSoftware: The PK parameters were determined by non-compartmental model of non-compartmental analysis tool, Pharsight Phoenix WinNonlin® 6.2 software.\nConcentration data within 80%-120% of LLOQ was considered within normal instrumental variation and presented in the results. Terminal t1/2 calculation: Time points were automatic selected by “best fit” model for terminal half life estimation as the first option. Manual selection was applied when “best fit” could not well define the terminal phase.", "key": {"[1]": {"details": "IV 1 mg/kg, 0.25 hr, individual, 1 mg/kg"}, "[2]": {"details": "IV 1 mg/kg, 1 hr, individual, 1 mg/kg"}, "[3]": {"details": "IV 1 mg/kg, 2 hr, individual, 1 mg/kg"}}, "note": "Values joined by “and” are separate entries in the source; they are usually repeats but may differ in a detail not shown here. Identical values can stand only once. Like-named read-outs stand apart in the source and are kept apart here."}
{"smiles": "CCN1CCN(C(=O)C2C3CCC(O3)C2C(=O)O)CC1", "note": "(stereo not drawn) [Compound 105]", "values": [{"measurement": "AUC(0-last) in liver", "setting": "105, IV 1 mg/kg, mean", "result": 1019, "unit": "ng·h/g"}, {"measurement": "Liver-plasma concentration ratio of 105", "setting": "[1]", "result": 0.646}, {"measurement": "liver concentration of 105", "setting": "[1]", "result": 988, "unit": "ng/g"}, {"measurement": "plasma concentration of 105", "setting": "[1]", "result": 1530, "unit": "ng/mL"}, {"measurement": "Liver-plasma concentration ratio of 105", "setting": "[2]", "result": 1.96}, {"measurement": "liver concentration of 105", "setting": "[2]", "result": 446, "unit": "ng/g"}, {"measurement": "plasma concentration of 105", "setting": "[2]", "result": 228, "unit": "ng/mL"}, {"measurement": "Liver-plasma concentration ratio of 105", "setting": "[3]", "result": "2.19 and 6.09"}, {"measurement": "liver concentration of 105", "setting": "[3]", "result": 131, "unit": "ng/g"}, {"measurement": "plasma concentration of 105", "setting": "[3]", "result": "45.2 ng/mL and 21.5 ng/mL"}, {"measurement": "liver concentration of 105", "setting": "IV 1 mg/kg, 6 hr, individual", "result": "BQL"}, {"measurement": "plasma concentration of 105", "setting": "IV 1 mg/kg, 6 hr, individual", "result": "BQL"}, {"measurement": "liver concentration of 105", "setting": "IV 1 mg/kg, 6 hr, mean", "result": "BQL"}, {"measurement": "plasma concentration of 105", "setting": "IV 1 mg/kg, 6 hr, mean", "result": "BQL"}, {"measurement": "liver concentration of 105", "setting": "IV 1 mg/kg, 10 hr, individual", "result": "BQL"}, {"measurement": "plasma concentration of 105", "setting": "IV 1 mg/kg, 10 hr, individual", "result": "BQL"}, {"measurement": "liver concentration of 105", "setting": "IV 1 mg/kg, 10 hr, mean", "result": "BQL"}, {"measurement": "plasma concentration of 105", "setting": "IV 1 mg/kg, 10 hr, mean", "result": "BQL"}, {"measurement": "liver concentration of 105", "setting": "IV 1 mg/kg, 24 hr, individual", "result": "BQL"}, {"measurement": "plasma concentration of 105", "setting": "IV 1 mg/kg, 24 hr, individual", "result": "BQL"}, {"measurement": "liver concentration of 105", "setting": "IV 1 mg/kg, 24 hr, mean", "result": "BQL"}, {"measurement": "plasma concentration of 105", "setting": "IV 1 mg/kg, 24 hr, mean", "result": "BQL"}, {"measurement": "Kp at 0.25 h", "setting": "male, SD, rat, in vivo, iv, 1 mg/kg, IV 1 mg/kg, 0.25 hr, individual, read-out: Liver-plasma concentration ratio of 105", "result": 0.554}, {"measurement": "concentration at 0.25 hr", "setting": "male, SD, rat, in vivo, iv, 1 mg/kg, IV 1 mg/kg, 0.25 hr, individual, read-out: liver concentration of 105", "result": 1070, "unit": "ng/g"}, {"measurement": "concentration at 0.25 hr", "setting": "male, SD, rat, in vivo, iv, 1 mg/kg, IV 1 mg/kg, 0.25 hr, individual, read-out: plasma concentration of 105", "result": 1930, "unit": "ng/mL"}, {"measurement": "Kp at 0.25 h", "setting": "male, SD, rat, in vivo, iv, 1 mg/kg, IV 1 mg/kg, 0.25 hr, mean, read-out: Liver-plasma concentration ratio of 105", "result": 0.6}, {"measurement": "concentration at 0.25 hr", "setting": "male, SD, rat, in vivo, iv, 1 mg/kg, IV 1 mg/kg, 0.25 hr, mean, read-out: liver concentration of 105", "result": 1030, "unit": "ng/g"}, {"measurement": "concentration at 0.25 hr", "setting": "male, SD, rat, in vivo, iv, 1 mg/kg, IV 1 mg/kg, 0.25 hr, mean, read-out: plasma concentration of 105", "result": 1730, "unit": "ng/mL"}, {"measurement": "Kp at 1 h", "setting": "male, SD, rat, in vivo, iv, 1 mg/kg, IV 1 mg/kg, 1 hr, individual, read-out: Liver-plasma concentration ratio of 105", "result": 2.19}, {"measurement": "concentration at 1 h", "setting": "male, SD, rat, in vivo, iv, 1 mg/kg, IV 1 mg/kg, 1 hr, individual, read-out: liver concentration of 105", "result": 576, "unit": "ng/g"}, {"measurement": "concentration at 1 hr", "setting": "male, SD, rat, in vivo, iv, 1 mg/kg, IV 1 mg/kg, 1 hr, individual, read-out: plasma concentration of 105", "result": 263, "unit": "ng/mL"}, {"measurement": "Kp at 1 h", "setting": "male, SD, rat, in vivo, iv, 1 mg/kg, IV 1 mg/kg, 1 hr, mean, read-out: Liver-plasma concentration ratio of 105", "result": 2.07}, {"measurement": "concentration at 1 h", "setting": "male, SD, rat, in vivo, iv, 1 mg/kg, IV 1 mg/kg, 1 hr, mean, read-out: liver concentration of 105", "result": 511, "unit": "ng/g"}, {"measurement": "concentration at 1 hr", "setting": "male, SD, rat, in vivo, iv, 1 mg/kg, IV 1 mg/kg, 1 hr, mean, read-out: plasma concentration of 105", "result": 246, "unit": "ng/mL"}, {"measurement": "concentration at 2 h", "setting": "male, SD, rat, in vivo, iv, 1 mg/kg, IV 1 mg/kg, 2 hr, individual, read-out: liver concentration of 105", "result": 99.2, "unit": "ng/g"}, {"measurement": "Kp at 2 h", "setting": "male, SD, rat, in vivo, iv, 1 mg/kg, IV 1 mg/kg, 2 hr, mean, read-out: Liver-plasma concentration ratio of 105", "result": 4.14}, {"measurement": "concentration at 2 h", "setting": "male, SD, rat, in vivo, iv, 1 mg/kg, IV 1 mg/kg, 2 hr, mean, read-out: liver concentration of 105", "result": 115, "unit": "ng/g"}, {"measurement": "concentration at 2 hr", "setting": "male, SD, rat, in vivo, iv, 1 mg/kg, IV 1 mg/kg, 2 hr, mean, read-out: plasma concentration of 105", "result": 33.4, "unit": "ng/mL"}, {"measurement": "AUC(0-t)", "setting": "male, SD, rat, in vivo, 105 in liver, IV 1 mg/kg, mean, read-out: AUC(0-t)", "result": 1020}, {"measurement": "Cmax", "setting": "male, SD, rat, in vivo, 105 in liver, IV 1 mg/kg, mean, read-out: Cmax", "result": 1030, "unit": "ng/mL"}, {"measurement": "MRT inf", "setting": "male, SD, rat, in vivo, 105 in plasma, IV 1 mg/kg, mean", "result": 19.7, "unit": "min"}, {"measurement": "Cmax", "setting": "male, Sprague-Dawley, rat, in vivo, 105, IV 1 mg/kg, mean, read-out: Cmax in liver", "result": 1030, "unit": "ng/g"}, {"measurement": "Tmax", "setting": "male, Sprague-Dawley, rat, in vivo, 105 in liver, IV 1 mg/kg, mean", "result": 15, "unit": "min"}, {"measurement": "clearance", "setting": "male, Sprague-Dawley, rat, in vivo, 105 in plasma, IV 1 mg/kg, mean", "result": 10.9, "unit": "mL/min/kg"}, {"measurement": "AUC(0-t)", "setting": "male, Sprague-Dawley, rat, in vivo, 105 in plasma, IV 1 mg/kg, mean, read-out: AUC(0-t) (AUClast)", "result": 1510, "unit": "ng·h/mL"}, {"measurement": "AUC(0-inf)", "setting": "male, Sprague-Dawley, rat, in vivo, 105 in plasma, IV 1 mg/kg, mean, read-out: AUC(0-∞) (AUCINF)", "result": 1530, "unit": "ng·h/mL"}, {"measurement": "Vd", "setting": "male, Sprague-Dawley, rat, in vivo, 105 in plasma, IV 1 mg/kg, mean, read-out: Vss", "result": 0.215, "unit": "L/kg"}, {"measurement": "half-life", "setting": "male, Sprague-Dawley, rat, in vivo, 105 in plasma, IV 1 mg/kg, mean, read-out: t1/2z (terminal half life) (converted)", "result": 18.5, "unit": "min"}]}
